The test deals with human APJ receptor (Homo sapiens (Human), UniProt P35414). The test is described as follows: Intracellular cAMP accumulation assay (APJ hcAMP, HTRF). The conditions noted are these: human APJ, cAMP accumulation; read-out: Human APJ cAMP EC50 Potency range. The format is cell-based. The essentials:
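HEK293 cells stably expressing human APJ, 5,000 per well, incubated 30 min at rt with compound, […] and 2 μM forskolin. cAMP measured by HTRF against a cAMP standard curve as inhibition of forskolin-driven production. EC50 from variable-slope sigmoidal fit.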
On the technique in general: Changes in cAMP serve as a functional read-out for many G protein-coupled receptors.

Each structure is given as a SMILES string.

Sequence of human APJ receptor (P35414 whole entry): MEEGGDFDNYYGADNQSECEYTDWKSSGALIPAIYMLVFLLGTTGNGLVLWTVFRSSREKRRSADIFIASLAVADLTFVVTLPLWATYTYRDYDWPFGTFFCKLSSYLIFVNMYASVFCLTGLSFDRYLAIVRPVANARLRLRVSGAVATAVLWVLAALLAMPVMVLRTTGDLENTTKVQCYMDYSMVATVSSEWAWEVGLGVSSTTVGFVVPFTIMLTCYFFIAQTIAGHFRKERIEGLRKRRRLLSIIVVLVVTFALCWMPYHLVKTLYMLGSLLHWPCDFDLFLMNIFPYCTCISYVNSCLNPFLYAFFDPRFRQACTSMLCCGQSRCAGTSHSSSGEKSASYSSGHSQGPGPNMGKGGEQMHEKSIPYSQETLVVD

Usually EC50 stands for the concentration that produces a half-maximal response. Regarding `COC[C@@H](c1ccccc1)n1c(COC(C)C)nc(=O)c(S(=O)(=O)c2ccc(-c3cccnc3C)cc2)c1O` [Example 328], the EC50 fell in the range of 0.01 to 10 nM.

For `COC[C@@H](c1ccccc1)n1c(COC(C)C)nc(=O)c(S(=O)(=O)c2ccc(-c3ccncc3C)cc2)c1O` [Example 329, 6-hydroxy-1-[(1R)-2-methoxy-1-phenylethyl]-5-[4-(3-methylpyridin-4-yl)benzenesulfonyl]-2-[(propan-2-yloxy)methyl]-1,4-dihydropyrimidin-4-one], the EC50 was 0.01 to 10 nM.

On to `Cc1ncccc1-c1ccc(S(=O)(=O)c2c(O)n([C@H]3CCc4ccccc43)c(COC(C)C)nc2=O)cc1` [Example 330, 1-[(1S)-2,3-dihydro-1H-inden-1-yl]-6-hydroxy-5-[4-(2-methylpyridin-3-yl)benzenesulfonyl]-2-[(propan-2-yloxy)methyl]-1,4-dihydropyrimidin-4-one], for which the EC50 was in the range of 0.01 to 10 nM.

On to `Cc1c(-c2ccc(S(=O)(=O)c3c(O)n([C@H]4CCc5ccccc54)c(COC(C)C)nc3=O)cc2)ccnc1F` [Example 331, 1-[(1S)-2,3-dihydro-1H-inden-1-yl]-5-[4-(2-fluoro-3-methylpyridin-4-yl)benzenesulfonyl]-6-hydroxy-2-[(propan-2-yloxy)methyl]-1,4-dihydropyrimidin-4-one], for which the EC50 is 0.01 to 10 nM.

On to `Cc1cnccc1-c1ccc(S(=O)(=O)c2c(O)n([C@H]3CCc4ccccc43)c(COC(C)C)nc2=O)cc1` [Example 332, 1-[(1S)-2,3-dihydro-1H-inden-1-yl]-6-hydroxy-5-[4-(3-methylpyridin-4-yl)benzenesulfonyl]-2-[(propan-2-yloxy)methyl]-1,4-dihydropyrimidin-4-one], for which the EC50 was 0.01 to 10 nM.

On to `COC[C@@H](c1ccccc1)n1c(COC(C)C)nc(=O)c(S(=O)(=O)c2ccc(-c3ccnc(F)c3C)c(F)c2)c1O` [Example 333, 5-[3-fluoro-4-(2-fluoro-3-methylpyridin-4-yl)benzenesulfonyl]-6-hydroxy-1-[(1R)-2-methoxy-1-phenylethyl]-2-[(propan-2-yloxy)methyl]-1,4-dihydropyrimidin-4-one], for which the EC50 was in the range of 0.01 to 10 nM.

Regarding `CCOCc1nc(=O)c(S(=O)(=O)c2ccc(-c3cncc(F)c3)cc2)c(O)n1[C@@H](CC)c1ccccc1` [Example 334, 2-(ethoxymethyl)-5-[4-(5-fluoropyridin-3-yl)benzenesulfonyl]-6-hydroxy-1-[(1S)-1-phenylpropyl]-1,4-dihydropyrimidin-4-one], the EC50 was 0.01 to 10 nM.

As to `COC[C@@H](c1ccccc1)n1c(COC(C)C)nc(=O)c(S(=O)(=O)c2ccc(-c3ccc(F)nc3)c(F)c2)c1O` [Example 335, 5-[3-fluoro-4-(6-fluoropyridin-3-yl)benzenesulfonyl]-6-hydroxy-1-[(1R)-2-methoxy-1-phenylethyl]-2-[(propan-2-yloxy)methyl]-1,4-dihydropyrimidin-4-one], the EC50 fell in the range of 0.01 to 10 nM.

`COC[C@@H](c1ccccc1)n1c(COC(C)C)nc(=O)c(S(=O)(=O)c2ccc(-c3ccncc3C)c(F)c2)c1O` [Example 336, 5-[3-fluoro-4-(3-methylpyridin-4-yl)benzenesulfonyl]-6-hydroxy-1-[(1R)-2-methoxy-1-phenylethyl]-2-[(propan-2-yloxy)methyl]-1,4-dihydropyrimidin-4-one]: the EC50 lay in the range of 0.01 to 10 nM.

On to `COC[C@@H](c1ccccc1)n1c(COC(C)C)nc(=O)c(S(=O)(=O)c2ccc(F)c(F)c2)c1O` [Example 337, 5-(3,4-difluorobenzenesulfonyl)-6-hydroxy-1-[(1R)-2-methoxy-1-phenylethyl]-2-[(propan-2-yloxy)methyl]-1,4-dihydropyrimidin-4-one], for which the concentration giving a half-maximal response (EC50) fell in the range of 0.01 to 10 nM.

In the case of `CCOCc1nc(=O)c(S(=O)(=O)c2ccc(-c3ccnc(F)c3C)c(F)c2)c(O)n1[C@@H](COC)c1ccccc1` [Example 338, 2-(ethoxymethyl)-5-[3-fluoro-4-(2-fluoro-3-methylpyridin-4-yl)benzenesulfonyl]-6-hydroxy-1-[(1R)-2-methoxy-1-phenylethyl]-1,4-dihydropyrimidin-4-one], the concentration for a half-maximal effect (EC50) lay within 0.01 to 10 nM.

`CCOCc1nc(=O)c(S(=O)(=O)c2ccc(-c3ccc(F)nc3C)c(F)c2)c(O)n1[C@@H](COC)c1ccccc1` [Example 339, 2-(ethoxymethyl)-5-[3-fluoro-4-(6-fluoro-2-methylpyridin-3-yl)benzenesulfonyl]-6-hydroxy-1-[(1R)-2-methoxy-1-phenylethyl]-1,4-dihydropyrimidin-4-one]: the EC50 fell in the range of 0.01 to 10 nM.

Take `CCOCc1nc(=O)c(S(=O)(=O)c2ccc(-c3ccncc3C)c(F)c2)c(O)n1[C@@H](COC)c1ccccc1` [Example 340, 2-(ethoxymethyl)-5-[3-fluoro-4-(3-methylpyridin-4-yl)benzenesulfonyl]-6-hydroxy-1-[(1R)-2-methoxy-1-phenylethyl]-1,4-dihydropyrimidin-4-one]: the EC50 was in the range of 0.01 to 10 nM.

For `CCOCc1nc(=O)c(S(=O)(=O)c2ccc(-c3ccc(F)nc3)c(F)c2)c(O)n1[C@@H](COC)c1ccccc1` [Example 341, 2-(ethoxymethyl)-5-[3-fluoro-4-(6-fluoropyridin-3-yl)benzenesulfonyl]-6-hydroxy-1-[(1R)-2-methoxy-1-phenylethyl]-1,4-dihydropyrimidin-4-one], the EC50 was 0.01 to 10 nM.

`CCOCc1nc(=O)c(S(=O)(=O)c2ccc(-c3ccnc(F)c3C)cc2)c(O)n1[C@H]1CCOc2ccccc21` [Example 342, 1-[(4S)-3,4-dihydro-2H-1-benzopyran-4-yl]-2-(ethoxymethyl)-5-[4-(2-fluoro-3-methylpyridin-4-yl)benzenesulfonyl]-6-hydroxy-1,4-dihydropyrimidin-4-one]: the EC50 lay within 10 to 100 nM.

On to `CCOCc1nc(=O)c(S(=O)(=O)c2ccc(-c3ccnc(F)c3C)c(F)c2)c(O)n1[C@@H](COC)c1cccc(C#N)c1` [Example 343, 3-[(1R)-1-[2-(ethoxymethyl)-5-[3-fluoro-4-(2-fluoro-3-methylpyridin-4-yl)benzenesulfonyl]-6-hydroxy-4-oxo-1,4-dihydropyrimidin-1-yl]-2-methoxyethyl] benzonitrile], for which the EC50 was 0.01 to 10 nM.

Consider `CCOCc1nc(=O)c(S(=O)(=O)c2ccc(-c3ccc(F)nc3C)c(F)c2)c(O)n1[C@@H](COC)c1cccc(C#N)c1` [Example 344, 3-[(1R)-1-[2-(ethoxymethyl)-5-[3-fluoro-4-(6-fluoro-2-methylpyridin-3-yl)benzenesulfonyl]-6-hydroxy-4-oxo-1,4-dihydropyrimidin-1-yl]-2-methoxyethyl] benzonitrile], for which the EC50 lay within 0.01 to 10 nM.

Consider `CCOCc1nc(=O)c(S(=O)(=O)c2ccc(-c3ccncc3C)c(F)c2)c(O)n1[C@@H](COC)c1cccc(C#N)c1` [Example 345, 3-[(1R)-1-[2-(ethoxymethyl)-5-[3-fluoro-4-(3-methylpyridin-4-yl)benzenesulfonyl]-6-hydroxy-4-oxo-1,4-dihydropyrimidin-1-yl]-2-methoxyethyl] benzonitrile], for which the EC50 was 0.01 to 10 nM.

Regarding `CCOCc1nc(=O)c(S(=O)(=O)c2ccc(-c3ccnc(F)c3C)c(F)c2)c(O)n1C(COC)c1cccc(F)c1` (stereo not shown) [Example 346, 2-(ethoxymethyl)-5-[3-fluoro-4-(2-fluoro-3-methylpyridin-4-yl)benzenesulfonyl]-1-[1-(3-fluorophenyl)-2-methoxyethyl]-6-hydroxy-1,4-dihydropyrimidin-4-one], the EC50 lay within 0.01 to 10 nM.
